# Measured values as given in publication PMC9412875, “^64Cu-DOTHA2-PSMA, a Novel PSMA PET Radiotracer for Prostate Cancer with a Long Imaging Time Window” (Pharmaceuticals, 2022).
# Read-outs that look alike come from different tables or passages of the source.
# Columns and labels:
# [1] = design: method as in PMID 29088775, doi:10.1515/ract-2016-2632; conditions: cited from earlier work
# [2] = cited from earlier work
# [3] = Plasma stability (ex vivo) and protein binding in mouse serum/plasma; type: in vitro ADME; conditions: incubation of free 64Cu(OAc)2 in mouse plasma
# Protocol: Plasma stability studies were carried out by incubating ^64Cu-DOTHA2-PSMA (50 MBq in 250 μL PBS buffer) in 250 μL of mouse serum at 37 °C for up to 24 h. The plasma was then mixed twice with ethanol (1:1) to precipitate all the proteins. The samples were subjected to vortex mixing for 1 min and then centrifugation for 10 min at 7000 rpm. Plasma proteins were separated from the soluble component by ultracentrifugation and the radioactivity was assessed. The supernatant fraction was assayed by radio-TLC on C18 plates and by UPLC; free ^64Cu(OAc)2 and ^64Cu-DOTHA2-PSMA were used as standards. The radio-TLCs were eluted with 0.1 M sodium citrate buffer at pH 5.5 using an Instant Imager system (BioScan, DC, U.S.A.) for radiodetection. The precipitated proteins were again subjected to 10% TFA, vortexed for 2–3 min, and then centrifuged for 10 min at 7000 rpm. The separation and analysis for the supernatant and the proteins were performed in the same manner.
# The protein binding ability was evaluated by incubating ^64Cu-DOTHA2-PSMA (100 MBq) in phosphate buffer (250 μL, pH 7) at 37 °C and fresh mouse serum (250 μL) and for 1 h, 4 h, and 24 h. Plasma proteins were precipitated by the addition of ethanol (1:1, v/v) to the plasma samples, followed by centrifugation at 7000 rpm for 5 min at room temperature and separation of the supernatant. This process was repeated three times with the same volume of ethanol, and the supernatants were pooled. The radioactivity content of the supernatant and the precipitated protein were measured in a dose calibrator to obtain the protein binding percentage.
# [4] = molecular target: PSMA; design: method as in PMID 25883127; conditions: cited from earlier work
# [5] = molecular target: T1, PSMA on the LNCaP human prostate cell line (Homo sapiens, UniProt Q04609); test: Cellular competition assay; type: binding
# T1 construct: Human prostate adenocarcinoma LNCaP PSMA-expressing cells were purchased from American Type Culture Collection; host or cells: LNCaP human prostate adenocarcinoma cells
# Protocol: Here, 12-well polylysine-coated Cellbind plates were seeded with 150 × 10^3 LNCaP cells. […] […] Cells were then incubated for 1 h, after which the medium was removed, cells were washed once with 1 mL of cold PBS, and then 1 mL of trypsin was added to collect cells for radioactivity measurement by gamma-counter. The assays were performed in triplicate, each time with independent ^64Cu-DOTHA2-PSMA production and cell seedings. IC50 was calculated using GraphPad Prism 9 one site fit logIC50.
# [6] = system: LNCaP cells; test: Cellular efflux assay; type: cell-based, human; conditions: 1h incubation
# Protocol: Here, 12-well polylysine-coated Cellbind plates were seeded with 150 × 10^3 LNCaP cells with 1.75 mL of cell media. At 70–100% confluence (3 days of growth), the cell medium was changed and 37 kBq of ^64Cu-DOTHA2-PSMA in 1 mL of cell medium was added to each well of group 1 and 160 kBq to each of group 2.
# For efflux assays, after adding ^64Cu-DOTHA2-PSMA, cells were incubated for 60 min for the time points 15 min to 4 h (group 1) and incubated for 4 h for the time points 4 h to 48 h (group 2). After incubation, the medium was removed, cells were washed with 1 mL of cold PBS, 1 mL of cell media was added and, similarly to uptake and internalization, cells were again incubated in nonradioactive media for 0, 15, 30, 45, 60 min, 2 h, 4 h (group 1) and 4 h, 8 h, 24 h, 32 h or 48 h (group 2) (3 wells per time point). After respective incubation times per well, the medium was removed, and cells were washed with 1 mL of cold PBS, then removed from the well with 1 mL of trypsin to measure the residual radioactivity by gamma counter. The results of residual activity were expressed as percentage of the 1 h (Group 1) or 4 h (Group 2) uptake activity (0 min of efflux time-point) as a function of time for 10^6 cells.
# All the assays were performed at least 3 times, each with different ^64Cu-DOTHA2-PSMA production and cell passage. Cells were counted in 3 wells for each protocol (uptake, internalization, and efflux) on day 1 and day 3 of each experiment and an average for cells numbers at day 2.
# [7] = Balb/c mice biodistribution; type: in vivo; conditions: 2 h p.i.
# Protocol: ^64Cu-DOTHA2-PSMA biodistribution was assessed in balb/c mice (n = 30) by harvesting blood and organs at 1 h, 2 h, 4 h, 24 h, and 48 h p.i. to measure tissue radioactivity and weight. Results were reported as the %IA/g of tissue and compared with the radiotracer used for clinical imaging in our facility, ^68Ga-PSMA-617.
# Balb/c mice (n = 30) were injected with a bolus of ^64Cu-DOTHA2-PSMA by the tail vein (in 0.3 mL of saline: 3 MBq for 1 h, 2 h, and 4 h p.i., 7.5 MBq for 24 h p.i. and 21 MBq for 48 h p.i.). Injected activity had to be increased for later time points to ensure reliable detection and reliability in organs with a low uptake, e.g., the brain. At all timepoints, blood was collected using a heparin-coated syringe by femoral vein puncture and mice were then euthanized and dissected. Harvested tissues were rinsed, blotted dry, and then weighted and counted in gamma counter. The results are reported as the %IA per gram of tissue. The biodistribution results were compared with the ^68Ga-PSMA-617 results obtained by our team at 1 h and 2 h p.i.
# T1 sequence (Q04609 whole entry): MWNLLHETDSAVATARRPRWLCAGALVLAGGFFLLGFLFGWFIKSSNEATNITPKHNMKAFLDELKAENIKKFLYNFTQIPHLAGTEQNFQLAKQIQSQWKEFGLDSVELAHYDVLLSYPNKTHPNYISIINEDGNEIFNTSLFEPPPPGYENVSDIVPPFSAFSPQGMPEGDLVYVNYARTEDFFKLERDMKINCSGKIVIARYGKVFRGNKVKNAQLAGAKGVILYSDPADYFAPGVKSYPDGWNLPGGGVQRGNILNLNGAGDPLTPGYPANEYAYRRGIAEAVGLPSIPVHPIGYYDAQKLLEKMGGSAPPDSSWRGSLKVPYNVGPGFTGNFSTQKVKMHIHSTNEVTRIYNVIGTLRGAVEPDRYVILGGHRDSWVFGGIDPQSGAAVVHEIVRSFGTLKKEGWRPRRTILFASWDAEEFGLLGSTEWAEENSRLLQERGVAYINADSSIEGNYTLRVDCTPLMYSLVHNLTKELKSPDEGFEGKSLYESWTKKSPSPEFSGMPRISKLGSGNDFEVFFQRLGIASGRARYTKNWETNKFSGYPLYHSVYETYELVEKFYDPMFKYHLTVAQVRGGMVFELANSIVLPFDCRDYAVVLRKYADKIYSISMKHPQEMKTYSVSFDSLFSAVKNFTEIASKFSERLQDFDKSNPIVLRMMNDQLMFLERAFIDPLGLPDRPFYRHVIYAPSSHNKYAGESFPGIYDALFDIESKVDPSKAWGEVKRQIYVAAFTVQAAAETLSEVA
structure (smiles),measurement,setting,value
O=C([O-])CN1CCN(CC(=O)[O-])CCN(CC(=O)NCC2CCC(C(=O)NC(Cc3ccc4ccccc4c3)C(=O)NCCCCC(NC(=O)NC(CCC(=O)O)C(=O)O)C(=O)O)CC2)CCN(CC(=O)O)CC1.[64Cu+2] (centres unmarked) [^64Cu-PSMA-617],log D,[1],−1.93 ± 0.13
same,signal corresponding to the intact product in blood,[2]; 2 h p.i.,20%
same,signal corresponding to the intact product in liver,[2]; 2 h p.i.,28%
same,signal corresponding to the intact product in urine,[2]; 2 h p.i.,5.2%
same,signal corresponding to the intact product in serum,[2]; after 5 min,71%
CC(=O)[O-].CC(=O)[O-].[64Cu+2] [^64Cu(OAc)2],proportion of the signal bound to plasma proteins,[3],greater than 90%
O=C(O)CC[C@H](NC(=O)N[C@@H](CCCCNC(=O)[C@H](Cc1ccc2ccccc2c1)NC(=O)[C@H]1CC[C@H](CNC(=O)CN2CCN(CC(=O)O)CCN(CC(=O)O)CCN(CC(=O)O)CC2)CC1)C(=O)O)C(=O)O [PSMA-617],Ki,[4],2.34 ± 2.94 nM
CN([O-])C(=O)CN1CCN(CC(=O)NCC2CCC(C(=O)NC(Cc3ccc4ccccc4c3)C(=O)NCCCCC(NC(=O)NC(CCC(=O)O)C(=O)O)C(=O)O)CC2)CCN(CC(=O)N(C)[O-])CCN(CC(=O)N(C)O)CC1.[Cu+2] (centres unmarked) [^natCu-DOTHA2-PSMA],IC50,"[5]; in competition with 64Cu-DOTHA2-PSMA, 1 h, reaction medium with 20 g/L BSA, read-out: IC50 on LNCaP",11.3 ± 14.3 nM
same,IC50,"[5]; with 10% BSA in RPMI, read-out: IC50",21.4 nM
same,IC50,"[5]; with RPMI only, read-out: IC50",9.08 nM
"O=C(O)CCC(NC(=O)NC(CCCCNC(=O)C(Cc1ccc2ccccc2c1)NC(=O)C1CCC(CNC(=O)CN2CCN(CC(=O)O)CCN(CC(=O)O)CCN(CC(=O)O)CC2)CC1)C(=O)O)C(=O)O.[68Ga] (centres unmarked) [^68Ga-PSMA-617, reference compound]",Retained activity normalized to time 0,[6]; efflux time 0.25 h,101.57%
same,Retained activity normalized to time 0,[6]; efflux time 0.50 h,106.07%
same,Retained activity normalized to time 0,[6]; efflux time 0.75 h,97.22%
same,Retained activity normalized to time 0,[6]; efflux time 1 h,84.75%
same,Retained activity normalized to time 0,[6]; efflux time 2 h,81.62%
same,log D,[1],−1.98
same,liver uptake,[7],0.67 ± 0.16 % IA/g
